What was measured:
Assay type in all cases: cell-based
MAGL = assay: Gene expression custom microarray, human skin fibroblasts (Example 1): MAGL
From the text: (§1) Cell cultures: A human skin fibroblast cell culture (or cultures) was obtained through the Coriell Cell Repository from the National Institute on Aging Cell Repository (Camden, N.J.), or Promocell GmbH (Heidelberg, Germany). The initial culture was selected from the following cell lines: AG13066, AG11557, AG11796 or GM03651E. The cell lines were derived from donors as follows:
(§2) Experimental phase: When the appropriate quantity of cells had been grown, they were detached as described above, but at the final step were seeded into each well of one or more 6 well dishes. Each well received 2 ml of the cell suspension so they were seeded equally. The dishes were returned to the incubator until 85-95% confluency was reached.
(§3) It is at this stage that all wells were rinsed in PBS after aspirating the growth media. The compound(s) to be tested were previously mixed into a suitable solvent (e.g., DMSO or ethanol) that can be diluted to the desired concentration of test compound (10 μl) in the culture wells without exceeding maximum solvent concentrations and adversely effecting cell viability, and mixed with basal media. NOTE: Standard maximum levels of solvent are 0.1% for DMSO and 0.5% for ETOH. The concentration of each test compound is found in Tables 1 & 2.
(§4) Every 2 wells on the 6 well plate served as a biological replicate for the purposes of RNA isolation and genetic expression evaluations making each 6 well dish an n=3 for the test compound(s) contained in the media. Negative control plates (no test compound(s) and only basal media) were also generated. The plates were returned to the incubator for 24 hrs.
(§5) At the end of the 24 hr time period, the plates were removed from the incubator, the test media aspirated, and the cells rinsed with PBS. RNA isolation is performed using the BioRad Aurum Total RNA Mini Kit (Hercules, Calif.) per manufacturer's protocol; which is described, in brief, below: • Add 350 μl of lysis buffer to each well. Pipet multiple times to ensure thorough lysis. Add lysed cells to the collection tube. • Add 350 μl of 70% ETOH to the collection tube and mix thoroughly. • Pipet the generated lysate onto the spin column placed in a new 2 ml tube. Centrifuge for 30 sec between 8,000 and 10,000 g. • Place the spin column containing the now bound RNA, in a new 2 ml tube. Add 700 μl of low stringency wash solution to the spin column. Centrifuge for 30 sec between 8,000 and 10,000 g. Discard the flow through and replace spin column. • Add 80 μl of DNase I dilution to the spin column and incubate at room temperature for 15 minutes. • Add 700 μl of high stringency wash solution to the column and centrifuge for 30 sec between 8,000 and 10,000 g. Discard flow through. • Add 700 μl of low stringency wash solution to the column and centrifuge for 60 sec between 8,000 and 10,000 g. Discard flow through. • Centrifuge for 2 minutes to remove residual wash solution. • Transfer spin column to new 1.5 ml collection tube and add 80 μl of elution solution to the column. Allow 1 minute for saturation of the membrane and then centrifuge for 2 minutes to complete the RNA elution. • Quantify the quantity of RNA and store at −20 C° until use (no more than 1 month)
(§6) The genes tested were: • Cannabinoid receptor 1 (CB1(CNR1)) • Cannabinoid receptor 2 (CB2 (CNR2)) • Fatty acid amide hydrolase (FAAH) • Monoacylglycerol lipase (MGLL, i.e., MAGL) • Peroxisome proliferator-activated receptor gamma (PPARG) • Nuclear factor kappa-light-chain-enhancer of activated B cells (NFκβ) • Interleukin 1 Alpha (IL1alpha) • Cyclooxygenase 1 (PTGS1, i.e., COX1) • Transient receptor potential cation channel subfamily A member 1 (TRPA1) • Transient receptor potential cation channel subfamily V member 1 (TRPV1) • Transient receptor potential cation channel subfamily M member 8 (TRPM8) • Hemoglobin Subunit Beta (HBB) REFERENCE GENE • Ribosomal Protein L13a (RPL13A) REFERENCE GENE […]

PTGS1 = assay: Gene expression custom microarray, human skin fibroblasts (Example 1): PTGS1; details: human skin fibroblasts, 10 uM, 24 hr
From the text: as §1, §2, §3, §4, §5, §6

CNR1 = assay: Gene expression custom microarray, human skin fibroblasts (Example 1): CNR1
From the text: as §1, §2, §3, §4, §5, §6

FAAH = assay: Gene expression custom microarray, human skin fibroblasts (Example 1): FAAH
From the text: as §1, §2, §3, §4, §5, §6

NFKB1 = assay: Gene expression custom microarray, human skin fibroblasts (Example 1): NFKB1; details: human skin fibroblasts, 10 uM, 24 hr
From the text: as §1, §2
as §3, with “ETOH.” for “ETOH. The concentration of each test compound is found in Tables 1 & 2.”
as §4, §5
The genes tested were: • Cannabinoid receptor 1 (CB1(CNR1)) • Cannabinoid receptor 2 (CB2 (CNR2)) • Fatty acid amide hydrolase (FAAH) • Monoacylglycerol lipase (MGLL, i.e., MAGL) • Peroxisome proliferator-activated receptor gamma (PPARG) • Nuclear factor kappa-light-chain-enhancer of activated B cells (NFκβ) • Interleukin 1 Alpha (IL1alpha) • Cyclooxygenase 1 (PTGS1, i.e., COX1) • Transient receptor potential cation channel subfamily A member 1 (TRPA1) • Transient receptor potential cation channel subfamily V member 1 (TRPV1) • Transient receptor potential cation channel subfamily M member 8 (TRPM8) • Hemoglobin Subunit Beta (HBB) REFERENCE GENE • Ribosomal Protein L13a (RPL13A) REFERENCE GENE

TRPM8 = assay: Gene expression custom microarray, human skin fibroblasts (Example 1): TRPM8; details: 24 hr; for fold induction at 10 µM: Skin fibroblast, read-out: TRPM8↑ gene expression, fold increase or decrease vs untreated cells
From the text: as §1, §2, §3, §4, §5, §6

[1] = human skin fibroblasts, 10 uM, 24 hr

Structure (SMILES) | fold induction at 10 µM (MAGL; Homo sapiens, Skin fibroblast, 24 h, read-out: MAGL↓ gene expression, fold increase or decrease vs untreated cells) | fold induction at 10 µM (PTGS1; Skin fibroblast, read-out: PTGS1↓ gene expression, fold increase or decrease vs untreated cells) | fold induction at 10 µM (CNR1; Homo sapiens, Skin fibroblast, 24 h, read-out: CNR1↑ gene expression, fold increase or decrease vs untreated cells) | fold induction at 10 µM (FAAH; Homo sapiens, Skin fibroblast, 24 h, read-out: FAAH↓ gene expression, fold increase or decrease vs untreated cells) | fold induction at 10 µM (NFKB1; Skin fibroblast, read-out: NFKB1↓ gene expression, fold increase or decrease vs untreated cells) | fold induction at 10 µM (TRPM8) | MAGL↓ gene expression, fold increase or decrease vs untreated cells (MAGL; [1]) [fold] | PTGS1↓ gene expression, fold increase or decrease vs untreated cells (PTGS1) [fold] | CNR1↑ gene expression, fold increase or decrease vs untreated cells (CNR1; [1]) [fold] | FAAH↓ gene expression, fold increase or decrease vs untreated cells (FAAH; [1]) [fold] | NFKB1↓ gene expression, fold increase or decrease vs untreated cells (NFKB1) [fold] | TRPM8↑ gene expression, fold increase or decrease vs untreated cells (TRPM8; 10 uM) [fold]
C=C(C)[C@@H]1CCC(C)=C[C@H]1c1c(O)cc(CCCCC)cc1O [CBD, cannabidiol, reference compound] | 1.8 | 4.2 | 1.5 | 2.2 | 2.3 | 6.1 |  |  |  |  |  | 
CCCCCCCCCCCCCCCC(=O)NCCO [N-palmitoylethanolamide] |  |  |  |  |  |  | 2.8 | 1.1 | 5.9 | −1.1 | 1.5 | 5.1
CC(C)[C@]12O[C@H]1[C@@H]1O[C@]13[C@]1(O[C@H]1C[C@H]1C4=C(CC[C@@]13C)C(=O)OC4)[C@@H]2O [Triptolide] |  |  |  |  |  | 47.6 |  |  |  |  |  | 
